Results reported in ChEMBL document CHEMBL1148562, “Synthesis and biological evaluation of novel pyrrolo[2,1-c][1,4]benzodiazepine prodrugs for use in antibody-directed enzyme prodrug therapy” (Bioorg Med Chem Lett, 2006).

Experiments:
LS174T [1] = assay: Cytotoxicity against LS174T human colon cell line after continuous exposure; type: functional, cell-based
LS174T [2] = assay: Cytotoxicity against LS174T human colon cell line after 1 hour of exposure; type: functional, cell-based
[3] = Conversion of prodrug to parent in distilled water at room temperature for 24 hrs; type: ADME; conditions: buffer
[4] = Conversion of prodrug to parent in distilled water at 37 degC for 24 hrs; type: ADME; conditions: buffer

Q: Which IC50 (LS174T [1]) does the source give for COc1cc2c(cc1OC)N(C(=O)OCc1ccc(OC(=O)N[C@@H](CCC(=O)O)C(=O)O)cc1)[C@@H](O)[C@@H]1CCCN1C2=O here?
A: 20000 nM

Q: What about the IC50 (LS174T [2]) of the same compound?
A: > 100000 nM

Q: And the Stability [3]?
A: Stable

Q: And the Activity [4]?
A: 7%

Q: With COc1cc2c(cc1OCCCOc1cc3c(cc1OC)C(=O)N1CCC[C@H]1[C@H](O)N3C(=O)OCc1ccc(NC(=O)N[C@@H](CCC(=O)O)C(=O)O)cc1)N(C(=O)OCc1ccc(NC(=O)N[C@@H](CCC(=O)O)C(=O)O)cc1)[C@@H](O)[C@@H]1CCCN1C2=O as the compound, how does the IC50 (LS174T [1]) read?
A: 0.8 nM

Q: What about the IC50 (LS174T [2]) of the same compound?
A: 6 nM

Q: What about the Activity [3] of the same compound?
A: Active

Q: And the Activity [4]?
A: Active

Q: Which IC50 (LS174T [1]) does the source give for COc1cc2c(cc1OCCCOc1cc3c(cc1OC)C(=O)N1CCC[C@H]1[C@H](O)N3C(=O)OCc1ccc(OC(=O)N[C@@H](CCC(=O)O)C(=O)O)cc1)N(C(=O)OCc1ccc(OC(=O)N[C@@H](CCC(=O)O)C(=O)O)cc1)[C@@H](O)[C@@H]1CCCN1C2=O here?
A: 21 nM

Q: What about the IC50 (LS174T [2]) of the same compound?
A: 200 nM

Q: What about the Stability [3] of the same compound?
A: Stable

Q: What about the Activity [4] of the same compound?
A: 3%

Q: For COc1cc2c(cc1OC)N(C(=O)OCc1ccc(NC(=O)N[C@@H](CCC(=O)O)C(=O)O)cc1)[C@@H](O)[C@@H]1CCCN1C2=O, which IC50 (LS174T [1]) is on record?
A: 1600 nM

Q: What about the IC50 (LS174T [2]) of the same compound?
A: 28000 nM

Q: And the Activity [3]?
A: Active

Q: What about the Activity [4] of the same compound?
A: Active

Q: For COc1cc2c(cc1OCCCOc1cc3c(cc1OC)C(=O)N1CCC[C@H]1C=N3)N=C[C@@H]1CCCN1C2=O [DSB-120], which IC50 (LS174T [1]) is on record?
A: 0.47 nM

Q: And the IC50 (LS174T [2])?
A: 13 nM

Q: Which IC50 (LS174T [1]) does the source give for COc1cc2c(cc1OC)C(=O)N1CCC[C@H]1C=N2 here?
A: 1400 nM

Q: What about the IC50 (LS174T [2]) of the same compound?
A: 14000 nM
